Consider three compounds from article PMC6466477 (Journal of Medicinal Chemistry, 2019).

The target in experiment [1] is T1, hA3AR (Homo sapiens, UniProt P0DMS8).
T1 sequence (P0DMS8 1-318): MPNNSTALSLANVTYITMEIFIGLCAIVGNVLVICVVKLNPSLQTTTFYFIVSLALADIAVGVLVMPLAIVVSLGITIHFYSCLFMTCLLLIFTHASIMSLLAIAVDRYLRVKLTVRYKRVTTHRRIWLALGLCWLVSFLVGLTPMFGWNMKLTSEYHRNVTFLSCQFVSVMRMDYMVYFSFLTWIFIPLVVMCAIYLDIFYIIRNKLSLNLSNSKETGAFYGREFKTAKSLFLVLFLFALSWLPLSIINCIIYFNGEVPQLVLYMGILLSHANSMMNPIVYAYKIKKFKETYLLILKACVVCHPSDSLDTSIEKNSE
The class given is biochemical. The following applies: for mode of antagonism: [35S]GTPγS binding assays, overall; for Schild slope, co-incubation: antagonist co-incubated with 2-Cl-IB-MECA for 30 min at 25 °C; for type of antagonism in co-incubation experiment: co-incubated with 2-Cl-IB-MECA; for type of antagonism in preincubation experiment: pretreatment with antagonist before 2-Cl-IB-MECA.

The target of experiment [2] is T1, hA3AR. As to the kind of experiment: Radioligand competition association assay with [3H]PSB-11. The class given is binding. The settings on record: competition association curve, Figure 3.
Experiment [3] addresses T1, hA3AR. The experiment is described as follows: Time-dependent [3H]PSB-11 displacement with or without 4 h preincubation. The settings on record: no preincubation, 0.5 h co-incubation with [3H]PSB-11, 25 °C. The class given is binding.
The target of experiment [4] is T1, hA3AR. The following applies: 25 °C; ref 7 (Xia et al.); cited from earlier work.

As for `CCCn1c(=O)c2c(nc3cc(OC)ccn32)n(CCCNC(=O)c2ccc(S(=O)(=O)F)cc2)c1=O` [compound 17b, 4-((3(8-Methoxy-2,4-dioxo-3-propyl-3,4-dihydropyrido[2,1-f]purin-1(2H)yl)propyl)carbamoyl)benzenesulfonyl Fluoride], at hA3AR [1], the mode of antagonism entry is listed as “competitive insurmountable”; the “Schild slope, co-incubation” value stood at 1.1 ± 0.1; the “type of antagonism in co-incubation experiment” value is given as “surmountable antagonism”; the “type of antagonism in preincubation experiment” value is “insurmountable antagonism”.
With `CCCn1c(=O)c2c(nc3cc(OC)ccn32)n(CCCNC(=O)c2ccc(S(C)(=O)=O)cc2)c1=O` [compound 19, N-(3-(8-Methoxy-2,4-dioxo-3-propyl-3,4-dihydropyrido[2,1-f]purin-1(2H)-yl)propyl)-4-(methylsulfonyl)benzamide], the “time to reach equilibrium” value on hA3AR [2] is reported as at most 30 min. In addition, on hA3AR [1], the mode of antagonism entry was “competitive surmountable”; the “Schild slope, co-incubation” value was determined as 1.0 ± 0.1; the “type of antagonism in co-incubation experiment” value was “surmountable antagonism”; the “type of antagonism in preincubation experiment” value is on record as “surmountable antagonism”. Further, the “Schild slope, preincubation” value on hA3AR [1] (antagonist preincubated 60 min at 25 °C before 2-Cl-IB-MECA for 30 min) was 1.1 ± 0.1. Moreover, the “hA3AR pKi (pre-0 h)” value at hA3AR [3] was found to be 6.2 ± 0.03.
For `CC[C@@H]1CN2C(=O)N(C)c3nc(-c4ccccc4)[nH]c3C2=N1` [[^3H]PSB-11, [^3H]8-Ethyl-4-methyl-2-phenyl-(8R)-4,5,7,8-tetrahydro-1H-imidazo[2,1-i]-purin-5-one], at hA3AR [4], the “koff (k2) of radioligand” value is on record as 0.3992 ± 0.02 min^–1 and the “kon (k1) of radioligand” value is on record as 0.281 ± 0.04 × 10^8 M^–1 min^–1.
